In this experiment the target is CFTR-mediated chloride transport (Homo sapiens, UniProt P13569). The format is cell-based. Particulars: enteroid cells incubated with test compound 18-24 hours, acute 10 μM forskolin and 300 nM Compound III; for Max. Activity: % of chloride transport with 3 μM Compound A, 3 μM Compound II and 300 nM acute Compound III triple combination control. The method in brief: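 Human intestinal enteroid cells incubated with compound 18–24 h at 37° C., then membrane potential dye (FLIPR) read 15 min after chloride-free stimulation with 10 μM forskolin, 100 μM IBMX and 300 nM Compound III. AUC expressed as % of triple-combination control (3 μM Compound A, 3 μM Compound II, 300 nM Compound III).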

Consider 14 compounds from patent US11866450B2, “Modulators of Cystic Fibrosis Transmembrane Conductance regulator, pharmaceutical compositions, methods of treatment, and process for making the modulators” (priority 2018, dated 2024).

Bounds are passed on as bounds.

Chain of CFTR-mediated chloride transport (P13569 whole entry, looked up): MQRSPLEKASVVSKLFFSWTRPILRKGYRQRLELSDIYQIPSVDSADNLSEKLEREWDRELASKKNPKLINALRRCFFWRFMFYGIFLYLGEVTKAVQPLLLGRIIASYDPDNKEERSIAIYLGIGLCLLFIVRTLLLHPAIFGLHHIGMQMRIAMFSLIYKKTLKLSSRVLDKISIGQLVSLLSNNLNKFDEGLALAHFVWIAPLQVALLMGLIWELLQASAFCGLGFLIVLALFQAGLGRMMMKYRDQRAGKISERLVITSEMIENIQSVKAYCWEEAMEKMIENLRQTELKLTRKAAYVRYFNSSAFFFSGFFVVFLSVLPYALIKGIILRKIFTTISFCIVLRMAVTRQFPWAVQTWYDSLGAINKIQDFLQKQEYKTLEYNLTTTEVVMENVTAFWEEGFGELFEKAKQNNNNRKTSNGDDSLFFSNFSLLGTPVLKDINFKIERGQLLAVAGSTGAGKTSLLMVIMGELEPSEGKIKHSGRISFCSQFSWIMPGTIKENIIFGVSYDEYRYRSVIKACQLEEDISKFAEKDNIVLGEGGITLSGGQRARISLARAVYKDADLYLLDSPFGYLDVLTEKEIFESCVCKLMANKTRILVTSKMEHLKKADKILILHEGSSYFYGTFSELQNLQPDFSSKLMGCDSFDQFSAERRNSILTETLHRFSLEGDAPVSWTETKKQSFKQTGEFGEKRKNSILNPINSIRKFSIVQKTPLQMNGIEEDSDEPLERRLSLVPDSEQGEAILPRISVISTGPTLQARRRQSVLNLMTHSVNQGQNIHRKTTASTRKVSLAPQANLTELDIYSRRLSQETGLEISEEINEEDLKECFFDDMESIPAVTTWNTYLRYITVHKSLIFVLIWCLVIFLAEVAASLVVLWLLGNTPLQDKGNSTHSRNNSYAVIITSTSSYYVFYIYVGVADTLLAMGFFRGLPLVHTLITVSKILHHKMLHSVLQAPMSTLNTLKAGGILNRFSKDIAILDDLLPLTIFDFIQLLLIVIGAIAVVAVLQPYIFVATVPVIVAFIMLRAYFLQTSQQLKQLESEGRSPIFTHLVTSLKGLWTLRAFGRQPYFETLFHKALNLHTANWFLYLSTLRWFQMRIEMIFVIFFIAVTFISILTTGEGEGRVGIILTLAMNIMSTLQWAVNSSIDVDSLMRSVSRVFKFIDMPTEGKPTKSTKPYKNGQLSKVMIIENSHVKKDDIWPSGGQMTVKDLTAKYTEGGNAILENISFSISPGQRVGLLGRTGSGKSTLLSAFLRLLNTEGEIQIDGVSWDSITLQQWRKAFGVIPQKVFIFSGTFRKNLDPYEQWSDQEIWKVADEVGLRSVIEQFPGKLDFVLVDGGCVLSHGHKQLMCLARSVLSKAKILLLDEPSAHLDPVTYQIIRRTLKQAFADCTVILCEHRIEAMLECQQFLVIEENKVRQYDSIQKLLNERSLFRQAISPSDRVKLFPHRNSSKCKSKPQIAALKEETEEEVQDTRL

The EC50 is the concentration that produces a half-maximal response. Consider `CC1(C)C[C@@H]2CCCNc3cccc(n3)S(=O)(=O)NC(=O)c3ccc(N4CC[C@H](OCC56CC7CC(CC(C7)C5)C6)C4=O)nc3N1C2` (single isomer, unassigned) [Compound 245], for which the EC50 was less than 1000 nM and the “Max. Activity” value was “+++ (+++ is >60%)”.

Regarding `CC(C)(C)CCCO[C@H]1CCN(c2ccc3c(n2)N2C[C@@H](CCCNc4cccc(n4)S(=O)(=O)NC3=O)CC2(C)C)C1=O` (single isomer, unassigned) [Compound 246], the concentration giving a half-maximal response (EC50) is less than 1000 nM and the “Max. Activity” value is “++ (++ is 30-60%)”.

Turning to `CC(C)(C)CCCO[C@H]1CCN(c2ccc3c(n2)N2C[C@@H](CCCNc4cccc(n4)S(=O)(=O)NC3=O)CC2(C)C)C1=O` (single isomer, unassigned) [Compound 247], the 50% effective concentration (EC50) is less than 1000 nM and the “Max. Activity” value was “+++ (+++ is >60%)”.

In the case of `CC(C)C(COc1ccn(-c2ccc3c(n2)N2C[C@@H](CC2(C)C)OCCNc2cccc(n2)S(=O)(=O)NC3=O)n1)C(C)C` (single isomer, unassigned) [Compound 248, 12,12-dimethyl-8-{3-[3-methyl-2-(propan-2-yl)butoxy]-1H-pyrazol-1-yl}-15-oxa-2λ^6-thia-3,9,11,18,23-pentaazatetracyclo[17.3.1.111,14.05,10]tetracosa-1(23),5(10),6,8,19,21-hexaene-2,2,4-trione], the EC50 is less than 1000 nM and the “Max. Activity” value is listed as “++ (++ is 30-60%)”.

As to `CC(C)C(COc1ccn(-c2ccc3c(n2)N2C[C@@H](CC2(C)C)OCCNc2cccc(n2)S(=O)(=O)NC3=O)n1)C(C)C` (single isomer, unassigned) [Compound 249, 12,12-dimethyl-8-{3-[3-methyl-2-(propan-2-yl)butoxy]-1H-pyrazol-1-yl}-15-oxa-2λ^6-thia-3,9,11,18,23-pentaazatetracyclo[17.3.1.111,14.05,10]tetracosa-1(23),5(10),6,8,19,21-hexaene-2,2,4-trione], the 50% effective concentration (EC50) was less than 1000 nM and the “Max. Activity” value is reported as “+++ (+++ is >60%)”.

Consider `CC1(C)C[C@H]2CCNc3cccc(n3)S(=O)(=O)NC(=O)c3ccc(-n4ccc(OCCC(C5CC5)C5CC5)n4)nc3N1C2` (single isomer, unassigned) [Compound 250, 11-[3-(3,3-Dicyclopropylpropoxy)-1H-pyrazol-1-yl]-7,7-dimethyl-17λ^6-thia-2,8,10,16,22-pentaazatetracyclo[16.3.1.15,8.09,14]tricosa-1(22),9,11,13,18,20-hexaene-15,17,17-trione], for which the half-maximal effective concentration (EC50) was less than 1000 nM and the “Max. Activity” value is “++ (++ is 30-60%)”.

With `CC1(C)C[C@H]2CCNc3cccc(n3)S(=O)(=O)NC(=O)c3ccc(-n4ccc(OCCC(C5CC5)C5CC5)n4)nc3N1C2` (single isomer, unassigned) [Compound 251, 11-[3-(3,3-dicyclopropylpropoxy)-1H-pyrazol-1-yl]-7,7-dimethyl-17λ^6-thia-2,8,10,16,22-pentaazatetracyclo[16.3.1.15,8.09,14]tricosa-1(22),9,11,13,18,20-hexaene-15,17,17-trione], the concentration giving a half-maximal response (EC50) was less than 1000 nM and the “Max. Activity” value was “++ (++ is 30-60%)”.

With `CC1(C)C[C@H]2CCCNc3cccc(n3)S(=N)(=O)NC(=O)c3ccc(-n4ccc(OCCC5(C(F)(F)F)CC5)n4)nc3N1C2` (single isomer, unassigned) [Compound 266, 2-Imino-12,12-dimethyl-8-(3-{2-[1-(trifluoromethyl)cyclopropyl]ethoxy}-1H-pyrazol-1-yl)-2λ^6-thia-3,9,11,18,23-pentaazatetracyclo[17.3.1.111,14.05,10]tetracosa-1(23),5,7,9,19,21-hexaene-2,4-dione], the concentration giving a half-maximal response (EC50) was less than 1000 nM and the “Max. Activity” value is on record as “++ (++ is 30-60%)”.

For the compound `CC1(C)C[C@H]2CCCNc3cccc(n3)S(=N)(=O)NC(=O)c3ccc(-n4ccc(OCCC5(C(F)(F)F)CC5)n4)nc3N1C2` (single isomer, unassigned) [Compound 267, 2-imino-12,12-dimethyl-8-(3-{2-[1-(trifluoromethyl)cyclopropyl]ethoxy}-1H-pyrazol-1-yl)-2λ^6-thia-3,9,11,18,23-pentaazatetracyclo[17.3.1.111,14.05,10]tetracosa-1(23),5,7,9,19,21-hexaene-2,4-dione], the EC50 was less than 1000 nM and the “Max. Activity” value was “+++ (+++ is >60%)”.

For `CC1(C)C[C@H]2CCCNc3cccc(n3)S(=N)(=O)NC(=O)c3ccc(-n4ccc(OCCC5(C(F)(F)F)CC5)n4)nc3N1C2` (single isomer, unassigned) [Compound 271, 2-Imino-12,12-dimethyl-8-(3-{2-[1-(trifluoromethyl)cyclopropyl]ethoxy}-1H-pyrazol-1-yl)-2λ^6-thia-3,9,11,18,23-pentaazatetracyclo[17.3.1.111,14.05,10]tetracosa-1(23),5,7,9,19,21-hexaene-2,4-dione], the EC50 was less than 1000 nM and the “Max. Activity” value is reported as “+++ (+++ is >60%)”.

With `CC1(C)C[C@H]2CCCNc3cccc(n3)S(=N)(=O)NC(=O)c3ccc(-n4ccc(OCCC5(C(F)(F)F)CC5)n4)nc3N1C2` (single isomer, unassigned) [Compound 272, 2-imino-12,12-dimethyl-8-(3-{2-[1-(trifluoromethyl)cyclopropyl]ethoxy}-1H-pyrazol-1-yl)-2λ^6-thia-3,9,11,18,23-pentaazatetracyclo[17.3.1.111,14.05,10]tetracosa-1(23),5,7,9,19,21-hexaene-2,4-dione], the EC50 is greater than 3000 nM and the “Max. Activity” value is given as “+ (+ is <30%)”.

For the compound `CC1(C)C[C@H]2CCCCn3ccc(n3)S(=O)(=O)NC(=O)c3ccc(-n4ccc(OCCCC5(C(F)(F)F)CC5)n4)nc3N1C2` (single isomer, unassigned) [Compound 276, 21,21-dimethyl-4-(3-{3-[1-(trifluoromethyl)cyclopropyl]propoxy}-1H-pyrazol-1-yl)-10λ^6-thia-1,3,9,14,23-pentaazatetracyclo[17.2.1.111,14.02,7]tricosa-2,4,6,11(23),12-pentaene-8,10,10-trione], the EC50 was less than 1000 nM and the “Max. Activity” value is reported as “++ (++ is 30-60%)”.

For `CC1(C)C[C@H]2CCCCn3ccc(n3)S(=O)(=O)NC(=O)c3ccc(-n4ccc(OCCCC5(C(F)(F)F)CC5)n4)nc3N1C2` (single isomer, unassigned) [Compound 277, 21,21-dimethyl-4-(3-{3-[1-(trifluoromethyl)cyclopropyl]propoxy}-1H-pyrazol-1-yl)-10λ^6-thia-1,3,9,14,23-pentaazatetracyclo[17.2.1.111,14.02,7]tricosa-2,4,6,11(23),12-pentaene-8,10,10-trione], the EC50 was greater than 3000 nM and the “Max. Activity” value was “+ (+ is <30%)”.

Regarding `CC1(C)C[C@H]2CCn3ccc(n3)S(=O)(=O)NC(=O)c3ccc(-n4ccc(OCCCC5(C(F)(F)F)CC5)n4)nc3N1C2` (single isomer, unassigned) [Compound 278, 19,19-dimethyl-4-(3-{3-[1-(trifluoromethyl)cyclopropyl]propoxy}-1H-pyrazol-1-yl)-10λ^6-thia-1,3,9,14,21-pentaazatetracyclo[15.2.1.111,14.02,7]henicosa-2,4,6,11(21),12-pentaene-8,10,10-trione], the EC50 was greater than 3000 nM and the “Max. Activity” value is listed as “+ (+ is <30%)”.
